# Results taken from patent publication US20240327334A1, “Covalent Inhibitors As Antiviral Agents” (Enanta Pharmaceuticals, Inc., priority 2022, published 2024).
# How the values were obtained:
# SARS-CoV-2 replicon = assay: microbe, parasite or virus in culture; assay type: cell-based; conditions: Severe acute respiratory syndrome coronavirus 2, Huh-7
# [1] = biological target: SARS-CoV-2 Papain-like (PLpro) protease (Severe acute respiratory syndrome coronavirus 2, UniProt P0DTD1); assay: SARS-CoV-2 Papain-like (PLpro) protease biochemical enzyme inhibition assay (ubiquitin-fluorophore substrate, Ub-R110); conditions: Ub-R110 substrate; run in duplicate; read-out: PLpro IC50
Compound,EC50 (SARS-CoV-2 replicon) [nM],IC50 [1] [nM]
Cn1cc(-c2cc(F)cc(C3(NC(=O)c4ccccc4CNC(=O)C(=O)NCC#N)CC3)c2)cn1 [Example 235],> 10000,< 100
N#Cc1cc(-c2cccs2)cc(C2(NC(=O)c3ccccc3CNC(=O)C(=O)NCC#Cc3nccs3)CC2)c1 [Example 129],< 1000,< 100
N#CCNC(=O)C(=O)NCc1ccccc1C(=O)NC1(c2cc(-c3cccs3)cc3ccccc23)CC1 [Example 347],< 1000,< 100
N#CCNC(=O)C(=O)NCc1ccccc1C(=O)NC1(c2cc(-c3ccn(C(F)F)n3)cc3ccccc23)CC1 [Example 293],< 1000,< 100
N#CCNC(=O)C(=O)NCc1ccccc1C(=O)NC1(c2cc(-c3ccc(CO)s3)cc3ccccc23)CC1 [Example 350],< 1000,< 100
O=C(NCC#Cc1cscn1)C(=O)NCc1ccccc1C(=O)NC1(c2cccc3ccccc23)CC1 [Example 159],< 1000,< 100
C[C@@H](C#Cc1ccc(C#N)c(F)c1)NC(=O)C(=O)NCc1ccccc1C(=O)NC1(c2ccc3nn(C)cc3c2)CC1 [Example 106],< 1000,< 100
N#Cc1nc(C#CCNC(=O)C(=O)NCc2ccccc2C(=O)NC2(c3ccc4ccccc4c3)CC2)ccc1Cl [Example 194],< 1000,< 100
N#CCNC(=O)C(=O)NCc1ccccc1C(=O)NC1(c2cccc3c(Br)cccc23)CC1 [Example 310],< 1000,< 100
O=C(NCC#Cc1nccs1)C(=O)NCc1ccccc1C(=O)NC1(c2cc3ccccc3cn2)CC1 [Example 394],< 1000,< 100
COc1cc(C2(NC(=O)c3ccccc3CNC(=O)C(=O)N[C@@H](C)C#Cc3ncccc3Cl)CC2)cc2cn(C3CC3)nc12 [Example 279],< 1000,< 100
C#CCNC(=O)C(=O)NCc1ccccc1C(=O)NC1(c2cc(F)cc(Br)c2)CC1 [Example 228],< 1000,< 100
C[C@@H](C#Cc1ncccc1Cl)NC(=O)C(=O)NCc1ccccc1C(=O)NC1(c2cc(F)cc(-c3cnn(C4CC4)c3)c2)CC1 [Example 264],< 1000,< 100
C[C@@H](C#Cc1nccs1)NC(=O)C(=O)NCc1ccccc1C(=O)NC1(c2ccnc3c2ccn3C2CC2)CC1 [Example 402],< 1000,< 100
CC(=O)N1CCN(c2cc(C3(NC(=O)c4ccccc4CNC(=O)C(=O)NCC#N)CC3)c3ccccc3c2)CC1 [Example 328],1000 to 10000,< 100
Cn1ccnc1C#CCNC(=O)C(=O)NCc1ccccc1C(=O)NC1(c2ccc3ccccc3c2)CC1 [Example 197],< 1000,< 100
O=C(NCC#Cc1nccs1)C(=O)NCc1ccccc1C(=O)NC1(c2cc(-c3ccn(C4CC4)n3)cc(F)c2F)CC1 [Example 305],< 1000,< 100
N#CCNC(=O)C(=O)NCc1ccccc1C(=O)NC1(c2ccc(F)c(Br)c2)CC1 [Example 217],> 10000,100 to 1000
O=C(NCC#Cc1nccs1)C(=O)NCc1ccccc1C(=O)NC1(c2cc(F)cc(-c3cnn(C4CC4)c3)c2F)CC1 [Example 313],< 1000,< 100
C#CCNC(=O)C(=O)NCc1ccccc1C(=O)NC1(c2cc(-c3ccccc3)cc(C(F)(F)F)c2)CC1 [Example 469],1000 to 10000,< 100
O=C(NC/C=C1\CCOC1=O)C(=O)NCc1ccccc1C(=O)NC1(c2cccc3ccccc23)CC1 [Example 153],< 1000,< 100
N#CCNC(=O)C(=O)NCc1ccccc1C(=O)NC1(c2cc(-c3cn(-c4ccccn4)nn3)cc3ccccc23)CC1 [Example 427],< 1000,< 100
N#CCNC(=O)C(=O)NCc1ccccc1C(=O)NC1(c2cc(-c3cccs3)cc(-c3cccs3)c2)CC1 [Example 452],1000 to 10000,< 100
CN(C)S(=O)(=O)n1cc(-c2cc(C3(NC(=O)c4ccccc4CNC(=O)C(=O)NCC#N)CC3)c3ccccc3c2)cn1 [Example 355],< 1000,< 100
O=C(NCC#Cc1ncc(F)cn1)C(=O)NCc1ccccc1C(=O)NC1(c2cc(F)cc(-c3cnn(C4CC4)c3)c2)CC1 [Example 248],< 1000,< 100
CC(C)OC(=O)/C=C/CNC(=O)C(=O)NCc1ccccc1C(=O)NC1(c2cccc3ccccc23)CC1 [Example 538],1000 to 10000,100 to 1000
COc1cccnc1C#CCNC(=O)C(=O)NCc1ccccc1C(=O)NC1(c2cc(F)cc(-c3cnn(C4CC4)c3)c2)CC1 [Example 261],< 1000,< 100
Cn1cc(-c2cc(C3(NC(=O)c4ccccc4CNC(=O)C(=O)NCC#N)CC3)ccc2F)cn1 [Example 231],> 10000,< 100
N#CCNC(=O)C(=O)NCc1ccccc1C(=O)NC1(c2cc(Cl)cc(-n3cccn3)c2)CC1 [Example 480],1000 to 10000,< 100
